#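 Values below derive from 48-hour exposures of cells grown in 96-well plates, with endpoints linearly interpolated between the two concentrations bracketing the appropriate inhibition level. TGI marks complete inhibition of growth.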
# Experiments:
# Assay in all cases: DTP human tumour cell line panel, 48 h
# 786-0 renal = test system: 786-0 renal
# A549 NSCLC = test system: A549 NSCLC
# ACHN renal = test system: ACHN renal
# BT-549 breast = test system: BT-549 breast
# CAKI-1 renal = test system: CAKI-1 renal
# CCRF-CEM leukemia = test system: CCRF-CEM leukemia
# COLO 205 colon = test system: COLO 205 colon
# DU-145 prostate = test system: DU-145 prostate
# EKVX NSCLC = test system: EKVX NSCLC
# HCT-116 colon = test system: HCT-116 colon
# HCT-15 colon = test system: HCT-15 colon
# HL-60(TB) leukemia = test system: HL-60(TB) leukemia
# HOP-62 NSCLC = test system: HOP-62 NSCLC
# HS 578T breast = test system: HS 578T breast
# HT29 colon = test system: HT29 colon
# IGROV1 ovarian = test system: IGROV1 ovarian
# K-562 leukemia = test system: K-562 leukemia
# KM12 colon = test system: KM12 colon
# LOX IMVI melanoma = test system: LOX IMVI melanoma
# M14 melanoma = test system: M14 melanoma
# MCF7 breast = test system: MCF7 breast
# MDA-MB-231 breast = test system: MDA-MB-231 breast
# MDA-MB-435 = test system: MDA-MB-435
# MDA-N = test system: MDA-N
# MOLT-4 leukemia = test system: MOLT-4 leukemia
# NCI-H226 lung = test system: NCI-H226 lung
# NCI-H460 lung = test system: NCI-H460 lung
# NCI-H522 lung = test system: NCI-H522 lung
# NCI/ADR-RES ovarian = test system: NCI/ADR-RES ovarian
# OVCAR-3 ovarian = test system: OVCAR-3 ovarian
# OVCAR-4 ovarian = test system: OVCAR-4 ovarian
# OVCAR-5 ovarian = test system: OVCAR-5 ovarian
# OVCAR-8 ovarian = test system: OVCAR-8 ovarian
# PC-3 prostate = test system: PC-3 prostate
# RPMI-8226 leukemia = test system: RPMI-8226 leukemia
# RXF 393 renal = test system: RXF 393 renal
# SF-268 CNS = test system: SF-268 CNS
# SF-295 CNS = test system: SF-295 CNS
# SF-539 CNS = test system: SF-539 CNS
# SK-MEL-2 melanoma = test system: SK-MEL-2 melanoma
# SK-MEL-28 melanoma = test system: SK-MEL-28 melanoma
# SK-MEL-5 melanoma = test system: SK-MEL-5 melanoma
# SK-OV-3 ovarian = test system: SK-OV-3 ovarian
# SN12C renal = test system: SN12C renal
# SNB-19 CNS = test system: SNB-19 CNS
# SNB-75 CNS = test system: SNB-75 CNS
# SR leukemia = test system: SR leukemia
# SW-620 colon = test system: SW-620 colon
# T-47D breast = test system: T-47D breast
# TK-10 renal = test system: TK-10 renal
# U251 CNS = test system: U251 CNS
# UACC-257 melanoma = test system: UACC-257 melanoma
# UACC-62 melanoma = test system: UACC-62 melanoma
# UO-31 renal = test system: UO-31 renal
# HCC-2998 colon = test system: HCC-2998 colon
# MALME-3M melanoma = test system: MALME-3M melanoma
# NCI-H23 lung = test system: NCI-H23 lung
# HOP-92 NSCLC = test system: HOP-92 NSCLC
compound,measurement,setting,value
Cc1ccc(S(=O)(=O)N(CCN2C(=O)c3ccccc3C2=O)c2cc3c4c(c2)Oc2cc(N(CCN5C(=O)c6ccccc6C5=O)S(=O)(=O)c5ccc(C)cc5)cc5c2C4(C)c2c(cc(N(CCN4C(=O)c6ccccc6C4=O)S(=O)(=O)c4ccc(C)cc4)cc2O5)O3)cc1,TGI,786-0 renal,> 100 µM
same,TGI,A549 NSCLC,> 100 µM
same,TGI,ACHN renal,> 100 µM
same,TGI,BT-549 breast,> 100 µM
same,TGI,CAKI-1 renal,> 100 µM
same,TGI,CCRF-CEM leukemia,> 100 µM
same,TGI,COLO 205 colon,> 100 µM
same,TGI,DU-145 prostate,> 100 µM
same,TGI,EKVX NSCLC,> 100 µM
same,TGI,HCT-116 colon,> 100 µM
same,TGI,HCT-15 colon,> 100 µM
same,TGI,HL-60(TB) leukemia,> 100 µM
same,TGI,HOP-62 NSCLC,> 100 µM
same,TGI,HS 578T breast,> 100 µM
same,TGI,HT29 colon,> 100 µM
same,TGI,IGROV1 ovarian,> 100 µM
same,TGI,K-562 leukemia,> 100 µM
same,TGI,KM12 colon,> 100 µM
same,TGI,LOX IMVI melanoma,> 100 µM
same,TGI,M14 melanoma,> 100 µM
same,TGI,MCF7 breast,> 100 µM
same,TGI,MDA-MB-231 breast,45.8 µM
same,TGI,MDA-MB-435,> 100 µM
same,TGI,MDA-N,> 100 µM
same,TGI,MOLT-4 leukemia,> 100 µM
same,TGI,NCI-H226 lung,> 100 µM
same,TGI,NCI-H460 lung,> 100 µM
same,TGI,NCI-H522 lung,> 100 µM
same,TGI,NCI/ADR-RES ovarian,> 100 µM
same,TGI,OVCAR-3 ovarian,> 100 µM
same,TGI,OVCAR-4 ovarian,> 100 µM
same,TGI,OVCAR-5 ovarian,> 100 µM
same,TGI,OVCAR-8 ovarian,> 100 µM
same,TGI,PC-3 prostate,> 100 µM
same,TGI,RPMI-8226 leukemia,> 100 µM
same,TGI,RXF 393 renal,> 100 µM
same,TGI,SF-268 CNS,> 100 µM
same,TGI,SF-295 CNS,> 100 µM
same,TGI,SF-539 CNS,> 100 µM
same,TGI,SK-MEL-2 melanoma,> 100 µM
same,TGI,SK-MEL-28 melanoma,> 100 µM
same,TGI,SK-MEL-5 melanoma,> 100 µM
same,TGI,SK-OV-3 ovarian,> 100 µM
same,TGI,SN12C renal,> 100 µM
same,TGI,SNB-19 CNS,> 100 µM
same,TGI,SNB-75 CNS,> 100 µM
same,TGI,SR leukemia,> 100 µM
same,TGI,SW-620 colon,> 100 µM
same,TGI,T-47D breast,> 100 µM
same,TGI,TK-10 renal,> 100 µM
same,TGI,U251 CNS,> 100 µM
same,TGI,UACC-257 melanoma,> 100 µM
same,TGI,UACC-62 melanoma,> 100 µM
same,TGI,UO-31 renal,> 100 µM
CC(=O)N1C(Nc2cnc3ccccc3c2)CCN1c1ccccc1 (stereo unspecified),TGI,786-0 renal,> 10 µM
same,TGI,A549 NSCLC,> 10 µM
same,TGI,ACHN renal,> 10 µM
same,TGI,BT-549 breast,> 10 µM
same,TGI,CAKI-1 renal,> 10 µM
same,TGI,CCRF-CEM leukemia,> 10 µM
same,TGI,COLO 205 colon,> 10 µM
same,TGI,DU-145 prostate,> 10 µM
same,TGI,EKVX NSCLC,> 10 µM
same,TGI,HCC-2998 colon,> 10 µM
same,TGI,HCT-116 colon,> 10 µM
same,TGI,HCT-15 colon,> 10 µM
same,TGI,HL-60(TB) leukemia,> 10 µM
same,TGI,HOP-62 NSCLC,> 10 µM
same,TGI,HS 578T breast,> 10 µM
same,TGI,HT29 colon,> 10 µM
same,TGI,IGROV1 ovarian,> 10 µM
same,TGI,K-562 leukemia,> 10 µM
same,TGI,LOX IMVI melanoma,> 10 µM
same,TGI,M14 melanoma,> 10 µM
same,TGI,MALME-3M melanoma,> 10 µM
same,TGI,MCF7 breast,> 10 µM
same,TGI,MDA-MB-231 breast,> 10 µM
same,TGI,MDA-MB-435,> 10 µM
same,TGI,MDA-N,> 10 µM
same,TGI,MOLT-4 leukemia,> 10 µM
same,TGI,NCI-H226 lung,> 10 µM
same,TGI,NCI-H23 lung,> 10 µM
same,TGI,NCI-H460 lung,> 10 µM
same,TGI,NCI-H522 lung,> 10 µM
same,TGI,NCI/ADR-RES ovarian,> 10 µM
same,TGI,OVCAR-3 ovarian,> 10 µM
same,TGI,OVCAR-4 ovarian,> 10 µM
same,TGI,OVCAR-5 ovarian,> 10 µM
same,TGI,OVCAR-8 ovarian,> 10 µM
same,TGI,PC-3 prostate,> 10 µM
same,TGI,RPMI-8226 leukemia,> 10 µM
same,TGI,RXF 393 renal,> 10 µM
same,TGI,SF-268 CNS,> 10 µM
same,TGI,SF-295 CNS,> 10 µM
same,TGI,SF-539 CNS,> 10 µM
same,TGI,SK-MEL-2 melanoma,> 10 µM
same,TGI,SK-MEL-28 melanoma,> 10 µM
same,TGI,SK-MEL-5 melanoma,> 10 µM
same,TGI,SK-OV-3 ovarian,> 10 µM
same,TGI,SN12C renal,> 10 µM
same,TGI,SNB-19 CNS,> 10 µM
same,TGI,SNB-75 CNS,> 10 µM
same,TGI,SR leukemia,> 10 µM
same,TGI,SW-620 colon,> 10 µM
same,TGI,T-47D breast,> 10 µM
same,TGI,TK-10 renal,> 10 µM
same,TGI,UACC-257 melanoma,> 10 µM
same,TGI,UO-31 renal,> 10 µM
Nc1nc(N)c2c(Cl)c(CNc3ccc(C(=O)NC(CC(=O)O)C(=O)O)cc3)ccc2n1 (stereo unspecified),TGI,786-0 renal,> 100 µM
same,TGI,A549 NSCLC,> 100 µM
same,TGI,ACHN renal,> 100 µM
same,TGI,BT-549 breast,> 100 µM
same,TGI,CAKI-1 renal,> 100 µM
same,TGI,COLO 205 colon,> 100 µM
same,TGI,DU-145 prostate,> 100 µM
same,TGI,HCC-2998 colon,> 100 µM
same,TGI,HCT-116 colon,> 100 µM
same,TGI,HCT-15 colon,> 100 µM
same,TGI,HL-60(TB) leukemia,> 100 µM
same,TGI,HOP-62 NSCLC,> 100 µM
same,TGI,HOP-92 NSCLC,> 100 µM
same,TGI,HS 578T breast,> 100 µM
same,TGI,HT29 colon,> 100 µM
same,TGI,IGROV1 ovarian,0.415 µM
same,TGI,K-562 leukemia,> 100 µM
same,TGI,KM12 colon,> 100 µM
same,TGI,LOX IMVI melanoma,> 100 µM
same,TGI,M14 melanoma,> 100 µM
same,TGI,MALME-3M melanoma,> 100 µM
same,TGI,MCF7 breast,> 34.2 µM
same,TGI,MDA-MB-231 breast,> 100 µM
same,TGI,MDA-MB-435,> 100 µM
same,TGI,MDA-N,> 100 µM
same,TGI,MOLT-4 leukemia,> 100 µM
same,TGI,NCI-H226 lung,> 100 µM
same,TGI,NCI-H23 lung,> 100 µM
same,TGI,NCI-H460 lung,> 100 µM
same,TGI,NCI/ADR-RES ovarian,> 100 µM
same,TGI,OVCAR-3 ovarian,> 100 µM
same,TGI,OVCAR-4 ovarian,> 100 µM
same,TGI,OVCAR-8 ovarian,> 100 µM
same,TGI,PC-3 prostate,> 100 µM
same,TGI,RPMI-8226 leukemia,> 100 µM
same,TGI,RXF 393 renal,> 100 µM
same,TGI,SF-268 CNS,> 100 µM
same,TGI,SF-295 CNS,> 100 µM
same,TGI,SF-539 CNS,31.9 µM
same,TGI,SK-MEL-2 melanoma,> 100 µM
same,TGI,SK-MEL-5 melanoma,> 100 µM
same,TGI,SK-OV-3 ovarian,> 93.3 µM
same,TGI,SN12C renal,> 100 µM
same,TGI,SNB-19 CNS,> 100 µM
same,TGI,SNB-75 CNS,> 100 µM
same,TGI,SR leukemia,> 100 µM
same,TGI,SW-620 colon,> 100 µM
same,TGI,T-47D breast,> 100 µM
same,TGI,TK-10 renal,> 100 µM
same,TGI,U251 CNS,> 100 µM
same,TGI,UACC-257 melanoma,> 100 µM
same,TGI,UACC-62 melanoma,> 100 µM
same,TGI,UO-31 renal,> 100 µM

# Reference: PubChem BioAssay (NCI)
